Experimental data published in patent publication US9879043B1, “Synthesis of non-natural cofactor analogs of S-adenosyl-L-methionine using methionine adenosyltransferase” (University of Kentucky Research Foundation, priority 2013, dated 2018).

What was measured:
[1] = biological target: T1, Methanocaldococcus jannaschii MAT (mMAT) (Methanocaldococcus jannaschii, UniProt Q58605); assay type: biochemical; settings: 2 mM Met analog, 1 mM ATP, 5 μM MAT, pH 8, 4 h, 65° C.; average of two assays
T1 sequence (Q58605 1-406): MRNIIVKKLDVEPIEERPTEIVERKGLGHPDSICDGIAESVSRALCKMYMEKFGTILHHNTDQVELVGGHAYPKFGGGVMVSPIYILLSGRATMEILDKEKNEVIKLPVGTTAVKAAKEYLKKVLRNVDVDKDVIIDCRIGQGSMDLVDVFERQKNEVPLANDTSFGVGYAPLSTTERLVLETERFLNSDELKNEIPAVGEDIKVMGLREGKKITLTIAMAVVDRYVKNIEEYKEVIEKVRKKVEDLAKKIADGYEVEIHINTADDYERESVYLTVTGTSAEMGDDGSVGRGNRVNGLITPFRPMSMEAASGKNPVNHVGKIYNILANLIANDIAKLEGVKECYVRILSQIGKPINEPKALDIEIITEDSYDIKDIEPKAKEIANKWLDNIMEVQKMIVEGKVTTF

[2] = biological target: T2, Sulfolobus solfataricus MAT (sMAT) (Saccharolobus solfataricus, UniProt Q980S9); assay: Kinetic measurements of sMAT reactions; assay type: biochemical
T2 sequence (Q980S9 1-404): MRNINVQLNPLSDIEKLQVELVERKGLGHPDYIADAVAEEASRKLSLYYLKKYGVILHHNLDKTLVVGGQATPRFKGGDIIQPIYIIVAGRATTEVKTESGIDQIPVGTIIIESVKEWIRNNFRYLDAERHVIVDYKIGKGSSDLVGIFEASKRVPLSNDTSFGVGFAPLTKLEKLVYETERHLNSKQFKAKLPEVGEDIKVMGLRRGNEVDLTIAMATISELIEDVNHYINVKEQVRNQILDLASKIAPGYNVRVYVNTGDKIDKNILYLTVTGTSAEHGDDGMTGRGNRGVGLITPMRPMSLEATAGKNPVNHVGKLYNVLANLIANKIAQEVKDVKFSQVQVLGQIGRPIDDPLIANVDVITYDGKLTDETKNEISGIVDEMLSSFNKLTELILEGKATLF
Protocol: Kinetic Measurements of sMAT Reactions: Pseudo first-order kinetics was assessed in triplicate under saturating ATP (2.5 mM) and variable L-methionine/L-ethionine (0.007, 0.013, 0.033, 0.066, 0.133, 0.333, 0.66, 1.33 mM) and saturating L-methionine/L-ethionine (2.5 mM) and variable ATP (0.013, 0.033, 0.066, 0.133, 0.333, 0.66, 1.33 mM) concentrations. Reactions were performed in buffer containing 25 mM Tris pH 8.0, 40 mM KCl and 5 mM MgCl2, and 0.5 μg purified sMAT was added and incubated at 37° C. or 65° C. in a final volume of 20 μL. Reaction products were analyzed using RP-HPLC method above and product quantification was carried out using standard curve generated by commercial SAM. The kinetic curves were fit to the Michaelis-Menton equation using Prism software.

CCSCC[C@H](N)C(=O)O [compound 3, (2S)-2-amino-4-(ethylsulfanyl)butanoic acid]
Percentage Turn-over mMAT [1]: 94% | kcat ([2]; 37° C. or 65° C., L-methionine versus L-ethionine): similar | Km ([2]; compared to native substrate L-methionine): higher Km values
